Assay results reported in US20250161317A1, “MOLIDUSTAT FORMULATIONS AND METHODS OF USE FOR TREATMENT OF ANEMIA IN CATS” (ELANCO US INC., priority 2022, published 2025).

Assays:
Type in all cases: in vivo, cat
Erythropoietin (EPO) = experiment: EPO plasma concentrations in healthy adult cats, daily oral dosing; settings: 6 hours post treatment, all study days measured
From the text: (§1) This study evaluated the effects of molidustat on red blood cell parameters in healthy, adult cats, if administered daily via the oral route at different dosages and using different formulations of molidustat sodium. The hematocrit, erythropoietin (EPO) and molidustat plasma concentrations during the treatment phase were examined, with hematocrit representing the main outcome parameter.
(§2) Twenty-two adult cats were randomized to three treatment groups and one control group with 5 and 6 cats/group respectively (3 (2) male/3 female). After a baseline phase of two weeks the cats were orally treated in fasted condition once daily. […] The oily suspensions were in accordance with the oily suspension described in Example 1.
(§3) For evaluation of the hematological parameters blood samples were taken at regular intervals before, during and after the treatment phase. Additionally, plasma samples were collected at study day (SD) 0, SD 7 and SD 23 before and after treatment and analyzed for their concentration of EPO and molidustat.

healthy, adult cats [1] = experiment: Tolerability and safety in healthy adult cats, daily oral dosing (Example 3); settings: once daily oral
From the text: as §2
Treatments had no impact on the cats' body weight. None of the findings observed during the physical examinations or general health observations were rated as having a negative impact on the outcome of the study. The most frequently observed findings were vomiting of small amounts of fluid.

healthy, adult cats [2] = experiment: Pharmacodynamic effects on hematocrit in healthy adult cats, daily oral dosing
From the text: as §1, §2
To keep the application volume per kg bodyweight (BW) consistent for each animal the oily suspension of molidustat was available at two different concentrations (5% and 10%), so that each cat was treated with 0.1 mL/kg BW of the respective formulation.
as §3

[Na+].[O-]c1c(-n2ccnn2)cnn1-c1cc(N2CCOCC2)ncn1 [molidustat sodium, sodium 1-[6-(morpholin-4-yl)pyrimidin-4-yl]-4-(1H-1,2,3-triazol-1-yl)-1H-pyrazol-5-olate]
EPO concentrations compared to the placebo group (Erythropoietin (EPO)): significantly differed
tolerability and safety (healthy, adult cats [1]; all study groups): very well tolerated and safe
impact on body weight (healthy, adult cats [1]): no impact
mean hematocrit compared to placebo (healthy, adult cats [2]; 5 mg/kg once daily oral, at SD 14): significantly higher
mean hematocrit compared to placebo (healthy, adult cats [2]; 10 mg/kg once daily oral, already at SD 7): significantly higher
study day from which mean hematocrit was comparable to placebo group (healthy, adult cats [2]; after cessation of treatment): SD 70
study day on which mean hematocrit returned to levels within reference range (healthy, adult cats [2]; after cessation of treatment): SD 56
hematocrit relative to reference range (healthy, adult cats [2]; all treated animals, for up to 42 days after treatment): increase in hematocrit above the reference range
